Tested on: INS-1E cytokine-induced apoptosis, ATP luminescence, 48 h
Experiment: protection from cytokine-induced beta-cell death, late-stage follow-up, mechanism study for beta-cell protection project, INS-1E, ATP luminescence, dry powder (AID 652171)

Compound	inhibition of cytokine-induced cell death (at 20 µM (top of the series))	inhibition of cytokine-induced cell death (at 10 µM (top of the series))
C[C@@H]1CN([C@@H](C)COC(=O)NCCOCCOCCN)C(=O)c2cccc(NC(=O)Nc3cccc4ccccc34)c2O[C@H]1CN(C)S(=O)(=O)c1ccc2c(c1)OCCO2	102%	–
C[C@@H]1CN([C@@H](C)CO)C(=O)c2cccc(NC(=O)Nc3cccc4ccccc34)c2O[C@H]1CN(C)S(=O)(=O)c1ccc2c(c1)OCCO2	–	90%

Reference: PubChem BioAssay AID652171 (Broad Institute, 2013)
